Laboratory results taken from patent publication US10844077B2, “Thiazolyl-containing compounds for treating proliferative diseases” (Dana-Farber Cancer Institute, Inc., priority 2014, dated 2020).
Several values for one entry are separate records, joined by “and”; a condition that tells them apart may be missing. Equal values may be shown once.

Legend:
[1] = test system: PCTAIRE1, PCTAIRE3; assay: KINATIV assay; format: cell-based; conditions: 1 μM, 90 minutes, BCWM.1 cells
Text: (§1) The cells were harvested and lysed.

[2] = test system: PCTAIRE2, PCTAIRE3; assay: KINATIV assay; format: cell-based; conditions: 1 μM, 90 minutes, BCWM.1 cells
Text: as §1

[3] = target: PCTAIRE1 (Homo sapiens (Human), UniProt Q00536)
Experimental: (§2) The cells were harvested and lysed. The lysates were directly labeled with an ATP-biotin probe. Bound kinases were identified and quantitated by ACTIVX as described in Patricelli et al., Biochemistry, 2007, 46(2): 350-358. The compounds were tested in duplicates against duplicate or quadruplicate control samples.

[4] = target: MAPKAPK3 (Homo sapiens (Human), UniProt Q16644)
Experimental: as §2

[5] = target: PRP4 (Homo sapiens (Human), UniProt Q13523)
Experimental: as §2

[6] = target: PRPK (Homo sapiens (Human), UniProt Q96S44)
Experimental: as §2

[7] = target: PCTAIRE2 (Homo sapiens (Human), UniProt Q00537)
Experimental: as §2

[8] = test system: ABL, ARG; assay: KINATIV assay; format: cell-based; conditions: 1 μM, 90 minutes, BCWM.1 cells
How it was run: (§3)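 ATP-biotin probe labeling of whole-cell lysates, followed by ACTIVX identification/quantitation of bound kinases; compounds in duplicate.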

[9] = target: CDK6 (Homo sapiens (Human), UniProt Q00534); assay: KINATIV assay; format: cell-based; conditions: 1 μM, 90 minutes, BCWM.1 cells
How it was run: as §3

[10] = target: NEK8 (Homo sapiens (Human), UniProt Q86SG6); assay: KINATIV assay; format: cell-based; conditions: 1 μM, 90 minutes, BCWM.1 cells
How it was run: as §3

[11] = target: NDR2 (Homo sapiens (Human), UniProt Q9Y2H1); assay: KINATIV assay; format: cell-based; conditions: 1 μM, 90 minutes, BCWM.1 cells
How it was run: as §3

[12] = target: GCK (Homo sapiens (Human), UniProt Q12851); assay: KINATIV assay; format: cell-based; conditions: 1 μM, 90 minutes, BCWM.1 cells
How it was run: as §3

[13] = target: GSK3A (Homo sapiens (Human), UniProt P49840); assay: KINATIV assay; format: cell-based; conditions: 1 μM, 90 minutes, BCWM.1 cells
How it was run: as §3

[14] = target: MAP3K3 (Homo sapiens (Human), UniProt Q99759); assay: KINATIV assay; format: cell-based; conditions: 1 μM, 90 minutes, BCWM.1 cells
How it was run: as §3

[15] = target: TAK1 (Homo sapiens (Human), UniProt O43318); assay: KINATIV assay; format: cell-based; conditions: 1 μM, 90 minutes, BCWM.1 cells
How it was run: as §3

[16] = target: CSK (Homo sapiens (Human), UniProt P41240); assay: KINATIV assay; format: cell-based; conditions: 1 μM, 90 minutes, BCWM.1 cells
How it was run: as §3

[17] = target: NLK (Homo sapiens (Human), UniProt Q9UBE8); assay: KINATIV assay; format: cell-based; conditions: 1 μM, 90 minutes, BCWM.1 cells
How it was run: as §3

[18] = test system: ZC1/HGK, ZC2/TNIK, ZC3/MINK; assay: KINATIV assay; format: cell-based; conditions: 1 μM, 90 minutes, BCWM.1 cells
How it was run: as §3

[19] = target: MSK2 domain1 (Homo sapiens (Human), UniProt O75676); assay: KINATIV assay; format: cell-based; conditions: 1 μM, 90 minutes, BCWM.1 cells
How it was run: as §3

[20] = target: FER (Homo sapiens (Human), UniProt P16591); assay: KINATIV assay; format: cell-based; conditions: 1 μM, 90 minutes, BCWM.1 cells
How it was run: as §3

[21] = test system: KSR1, KSR2; assay: KINATIV assay; format: cell-based; conditions: 1 μM, 90 minutes, BCWM.1 cells
How it was run: as §3

[22] = target: MST4 (Homo sapiens (Human), UniProt Q9P289); assay: KINATIV assay; format: cell-based; conditions: 1 μM, 90 minutes, BCWM.1 cells
How it was run: as §3

[23] = target: p70S6K (Homo sapiens (Human), UniProt P23443); assay: KINATIV assay; format: cell-based; conditions: 1 μM, 90 minutes, BCWM.1 cells
How it was run: as §3

[24] = target: ZC2/TNIK (Homo sapiens (Human), UniProt Q9UKE5); assay: KINATIV assay; format: cell-based; conditions: 1 μM, 90 minutes, BCWM.1 cells
How it was run: as §3

[25] = test system: MARK2, MARK3; assay: KINATIV assay; format: cell-based; conditions: 1 μM, 90 minutes, BCWM.1 cells
How it was run: as §3

[26] = target: PKD2 (Homo sapiens (Human), UniProt Q9BZL6); assay: KINATIV assay; format: cell-based; conditions: 1 μM, 90 minutes, BCWM.1 cells
How it was run: as §3

[27] = target: ACK (Homo sapiens (Human), UniProt Q07912); assay: KINATIV assay; format: cell-based; conditions: 1 μM, 90 minutes, BCWM.1 cells
How it was run: as §3

[28] = test system: FYN, SRC, YES; assay: KINATIV assay; format: cell-based; conditions: 1 μM, 90 minutes, BCWM.1 cells
How it was run: as §3

[29] = target: MAP2K1 (Homo sapiens (Human), UniProt Q02750); assay: KINATIV assay; format: cell-based; conditions: 1 μM, 90 minutes, BCWM.1 cells
How it was run: as §3

[30] = target: RSK4 domain1 (Homo sapiens (Human), UniProt Q9UK32); assay: KINATIV assay; format: cell-based; conditions: 1 μM, 90 minutes, BCWM.1 cells
How it was run: as §3

[31] = target: EphB1 (Homo sapiens (Human), UniProt P54762); assay: KINATIV assay; format: cell-based; conditions: 1 μM, 90 minutes, BCWM.1 cells
How it was run: as §3

[32] = target: SRPK1 (Homo sapiens (Human), UniProt Q96SB4); assay: KINATIV assay; format: cell-based; conditions: 1 μM, 90 minutes, BCWM.1 cells
How it was run: as §3

[33] = test system: Wnk1, Wnk2, Wnk3; assay: KINATIV assay; format: cell-based; conditions: 1 μM, 90 minutes, BCWM.1 cells
How it was run: as §3

[34] = target: TEC (Homo sapiens (Human), UniProt P42680); assay: KINATIV assay; format: cell-based; conditions: 1 μM, 90 minutes, BCWM.1 cells
How it was run: as §3

[35] = target: CK2a2 (Homo sapiens (Human), UniProt P19784); assay: KINATIV assay; format: cell-based; conditions: 1 μM, 90 minutes, BCWM.1 cells
How it was run: as §3

[36] = target: MAP2K7 (Homo sapiens (Human), UniProt O14733); assay: KINATIV assay; format: cell-based; conditions: 1 μM, 90 minutes, BCWM.1 cells
How it was run: as §3

[37] = target: ATR (Homo sapiens (Human), UniProt Q13535); assay: KINATIV assay; format: cell-based; conditions: 1 μM, 90 minutes, BCWM.1 cells
How it was run: as §3

[38] = target: VRK2 (Homo sapiens (Human), UniProt Q86Y07); assay: KINATIV assay; format: cell-based; conditions: 1 μM, 90 minutes, BCWM.1 cells
How it was run: as §3

[39] = target: BTK (Homo sapiens (Human), UniProt Q06187); assay: KINATIV assay; format: cell-based; conditions: 1 μM, 90 minutes, BCWM.1 cells
How it was run: as §3

[40] = target: TLK1 (Homo sapiens (Human), UniProt Q9UKI8); assay: KINATIV assay; format: cell-based; conditions: 1 μM, 90 minutes, BCWM.1 cells
How it was run: as §3

Sequence of TEC (P42680 whole entry): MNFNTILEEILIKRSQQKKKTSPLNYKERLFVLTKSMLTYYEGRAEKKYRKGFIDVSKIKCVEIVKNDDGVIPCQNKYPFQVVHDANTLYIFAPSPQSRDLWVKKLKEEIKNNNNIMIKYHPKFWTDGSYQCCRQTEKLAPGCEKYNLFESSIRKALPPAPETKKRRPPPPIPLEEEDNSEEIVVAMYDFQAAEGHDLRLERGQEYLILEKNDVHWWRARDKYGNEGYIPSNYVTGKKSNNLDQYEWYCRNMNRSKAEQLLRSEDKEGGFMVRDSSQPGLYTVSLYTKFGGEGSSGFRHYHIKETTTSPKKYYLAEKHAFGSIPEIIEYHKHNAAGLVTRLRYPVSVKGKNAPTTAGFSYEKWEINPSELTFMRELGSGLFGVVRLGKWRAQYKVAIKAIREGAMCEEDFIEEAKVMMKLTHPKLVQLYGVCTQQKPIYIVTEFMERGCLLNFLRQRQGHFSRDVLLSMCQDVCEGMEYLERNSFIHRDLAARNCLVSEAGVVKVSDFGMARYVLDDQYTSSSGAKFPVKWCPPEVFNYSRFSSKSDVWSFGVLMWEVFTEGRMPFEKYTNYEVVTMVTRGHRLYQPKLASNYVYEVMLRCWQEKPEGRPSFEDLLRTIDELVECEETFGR
Sequence of ACK (Q07912 whole entry): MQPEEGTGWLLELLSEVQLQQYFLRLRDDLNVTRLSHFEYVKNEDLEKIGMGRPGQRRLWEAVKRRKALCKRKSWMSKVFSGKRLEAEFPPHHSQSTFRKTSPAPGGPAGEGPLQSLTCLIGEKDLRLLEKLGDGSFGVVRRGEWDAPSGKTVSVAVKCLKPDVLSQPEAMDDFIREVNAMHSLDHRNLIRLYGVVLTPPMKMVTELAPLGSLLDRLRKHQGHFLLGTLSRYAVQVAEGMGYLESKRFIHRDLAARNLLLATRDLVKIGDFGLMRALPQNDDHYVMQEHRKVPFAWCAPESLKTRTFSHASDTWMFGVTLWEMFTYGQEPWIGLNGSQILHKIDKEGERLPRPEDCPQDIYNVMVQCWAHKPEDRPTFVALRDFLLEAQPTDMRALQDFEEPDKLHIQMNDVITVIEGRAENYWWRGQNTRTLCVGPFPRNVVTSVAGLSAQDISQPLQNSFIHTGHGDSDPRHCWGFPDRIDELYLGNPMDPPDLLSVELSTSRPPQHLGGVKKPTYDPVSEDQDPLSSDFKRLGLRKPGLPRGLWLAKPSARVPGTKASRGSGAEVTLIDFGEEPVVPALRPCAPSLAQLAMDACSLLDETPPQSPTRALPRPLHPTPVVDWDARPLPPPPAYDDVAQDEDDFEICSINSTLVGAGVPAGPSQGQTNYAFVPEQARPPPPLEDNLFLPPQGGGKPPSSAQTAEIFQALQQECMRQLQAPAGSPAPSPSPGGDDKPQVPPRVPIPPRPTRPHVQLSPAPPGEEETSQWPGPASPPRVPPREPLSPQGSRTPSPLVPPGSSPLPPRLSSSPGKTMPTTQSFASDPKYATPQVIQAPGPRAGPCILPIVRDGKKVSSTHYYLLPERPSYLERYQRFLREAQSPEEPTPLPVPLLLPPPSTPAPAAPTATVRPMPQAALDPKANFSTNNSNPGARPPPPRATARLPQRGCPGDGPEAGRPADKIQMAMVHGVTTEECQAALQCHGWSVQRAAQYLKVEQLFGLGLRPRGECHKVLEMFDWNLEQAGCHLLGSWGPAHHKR
Sequence of CSK (P41240 whole entry): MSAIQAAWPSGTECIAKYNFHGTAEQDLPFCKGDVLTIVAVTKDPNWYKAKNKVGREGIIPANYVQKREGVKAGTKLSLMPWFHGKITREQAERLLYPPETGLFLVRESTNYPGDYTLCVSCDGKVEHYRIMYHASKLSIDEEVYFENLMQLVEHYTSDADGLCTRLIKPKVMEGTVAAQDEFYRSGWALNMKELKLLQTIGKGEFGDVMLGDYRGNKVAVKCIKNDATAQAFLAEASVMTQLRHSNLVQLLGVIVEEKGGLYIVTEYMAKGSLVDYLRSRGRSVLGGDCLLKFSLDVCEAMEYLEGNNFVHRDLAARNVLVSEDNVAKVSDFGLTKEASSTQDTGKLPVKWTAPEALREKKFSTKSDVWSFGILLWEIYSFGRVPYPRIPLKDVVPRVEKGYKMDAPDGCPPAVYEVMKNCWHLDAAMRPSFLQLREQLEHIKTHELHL
Sequence of FER (P16591 whole entry): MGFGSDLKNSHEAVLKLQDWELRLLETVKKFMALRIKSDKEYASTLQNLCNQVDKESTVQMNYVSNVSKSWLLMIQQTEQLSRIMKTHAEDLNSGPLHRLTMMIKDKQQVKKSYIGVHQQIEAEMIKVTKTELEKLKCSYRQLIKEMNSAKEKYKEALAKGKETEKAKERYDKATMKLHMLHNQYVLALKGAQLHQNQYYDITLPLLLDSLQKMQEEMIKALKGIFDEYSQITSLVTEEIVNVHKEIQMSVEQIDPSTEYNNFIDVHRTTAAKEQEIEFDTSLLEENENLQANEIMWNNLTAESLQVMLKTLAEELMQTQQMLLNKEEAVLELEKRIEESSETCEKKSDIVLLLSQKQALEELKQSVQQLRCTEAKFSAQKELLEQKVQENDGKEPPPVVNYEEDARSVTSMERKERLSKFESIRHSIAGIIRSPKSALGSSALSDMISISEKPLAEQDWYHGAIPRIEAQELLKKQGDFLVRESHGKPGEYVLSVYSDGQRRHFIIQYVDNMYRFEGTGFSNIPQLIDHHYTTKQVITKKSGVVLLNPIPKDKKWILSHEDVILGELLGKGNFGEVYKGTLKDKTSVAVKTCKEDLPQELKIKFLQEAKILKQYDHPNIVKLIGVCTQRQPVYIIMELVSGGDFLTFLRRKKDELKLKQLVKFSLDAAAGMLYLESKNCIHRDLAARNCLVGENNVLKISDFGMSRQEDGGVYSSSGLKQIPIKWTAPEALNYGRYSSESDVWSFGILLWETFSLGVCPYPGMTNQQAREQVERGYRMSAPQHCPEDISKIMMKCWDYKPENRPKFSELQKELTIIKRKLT
Sequence of BTK (Q06187 whole entry, looked up): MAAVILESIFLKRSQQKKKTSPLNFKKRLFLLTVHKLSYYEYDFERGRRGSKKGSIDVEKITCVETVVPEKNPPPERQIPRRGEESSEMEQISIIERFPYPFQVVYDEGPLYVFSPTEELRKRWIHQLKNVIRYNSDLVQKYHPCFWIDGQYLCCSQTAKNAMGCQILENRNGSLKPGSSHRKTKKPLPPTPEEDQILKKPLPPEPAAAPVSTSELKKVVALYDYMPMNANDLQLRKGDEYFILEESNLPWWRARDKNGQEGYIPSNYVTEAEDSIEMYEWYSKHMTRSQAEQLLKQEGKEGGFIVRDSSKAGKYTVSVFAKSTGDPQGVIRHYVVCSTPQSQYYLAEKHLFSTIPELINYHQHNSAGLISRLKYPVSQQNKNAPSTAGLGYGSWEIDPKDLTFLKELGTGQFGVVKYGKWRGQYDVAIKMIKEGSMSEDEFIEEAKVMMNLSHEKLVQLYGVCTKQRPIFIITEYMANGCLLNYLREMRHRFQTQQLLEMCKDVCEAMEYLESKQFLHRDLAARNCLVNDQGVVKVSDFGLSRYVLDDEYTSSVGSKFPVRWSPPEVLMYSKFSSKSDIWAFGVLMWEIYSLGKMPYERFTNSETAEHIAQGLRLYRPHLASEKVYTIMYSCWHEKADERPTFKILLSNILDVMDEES
Sequence of GCK (Q12851 whole entry): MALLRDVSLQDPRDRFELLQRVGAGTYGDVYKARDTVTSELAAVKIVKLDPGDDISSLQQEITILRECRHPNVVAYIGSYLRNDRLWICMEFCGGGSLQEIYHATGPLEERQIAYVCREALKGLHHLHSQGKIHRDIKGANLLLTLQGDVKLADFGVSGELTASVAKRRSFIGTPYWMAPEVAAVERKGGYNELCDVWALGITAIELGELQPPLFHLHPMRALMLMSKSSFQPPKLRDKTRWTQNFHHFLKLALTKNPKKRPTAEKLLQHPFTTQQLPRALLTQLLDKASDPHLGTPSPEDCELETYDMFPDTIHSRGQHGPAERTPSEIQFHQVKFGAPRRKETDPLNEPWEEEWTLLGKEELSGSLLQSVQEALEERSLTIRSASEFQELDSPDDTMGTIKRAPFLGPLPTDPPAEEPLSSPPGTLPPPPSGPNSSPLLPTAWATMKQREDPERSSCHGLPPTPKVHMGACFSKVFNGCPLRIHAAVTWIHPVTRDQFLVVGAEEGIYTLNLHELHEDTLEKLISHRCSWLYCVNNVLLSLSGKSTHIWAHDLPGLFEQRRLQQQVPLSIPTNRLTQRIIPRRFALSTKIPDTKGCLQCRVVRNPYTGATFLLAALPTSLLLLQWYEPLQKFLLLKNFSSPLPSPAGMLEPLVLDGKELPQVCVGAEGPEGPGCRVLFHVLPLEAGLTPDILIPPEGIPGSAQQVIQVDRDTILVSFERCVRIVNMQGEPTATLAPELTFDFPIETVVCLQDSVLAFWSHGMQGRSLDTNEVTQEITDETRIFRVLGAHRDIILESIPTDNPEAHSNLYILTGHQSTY
Sequence of PCTAIRE1 (Q00536 whole entry, looked up): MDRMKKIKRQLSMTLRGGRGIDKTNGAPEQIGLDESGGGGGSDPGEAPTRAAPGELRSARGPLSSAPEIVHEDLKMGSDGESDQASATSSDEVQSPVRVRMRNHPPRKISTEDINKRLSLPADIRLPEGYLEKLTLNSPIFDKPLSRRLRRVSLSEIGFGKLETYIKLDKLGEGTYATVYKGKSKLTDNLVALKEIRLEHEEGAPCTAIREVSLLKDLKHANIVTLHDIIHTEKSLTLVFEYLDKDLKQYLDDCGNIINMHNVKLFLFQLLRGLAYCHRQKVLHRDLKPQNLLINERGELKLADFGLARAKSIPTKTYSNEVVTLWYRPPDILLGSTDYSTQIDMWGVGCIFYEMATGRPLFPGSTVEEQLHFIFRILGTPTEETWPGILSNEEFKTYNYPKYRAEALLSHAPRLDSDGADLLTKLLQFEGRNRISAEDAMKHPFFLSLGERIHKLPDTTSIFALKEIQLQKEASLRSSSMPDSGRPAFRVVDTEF

Structure (SMILES) | % change of MS signal compared to control sample [1] | % change of MS signal compared to control sample [2] | % change of MS signal compared to control sample [3] | % change of MS signal compared to control sample [4] | % change of MS signal compared to control sample [5] | % change of MS signal compared to control sample [6] | % change of MS signal compared to control sample [7] | % change of MS signal compared to control sample [8] | % change of MS signal compared to control sample [9] | % change of MS signal compared to control sample [10] | % change of MS signal compared to control sample [12] | % change of MS signal compared to control sample [13] | % change of MS signal compared to control sample [14] | % change of MS signal compared to control sample [15] | % change of MS signal compared to control sample [16] | % change of MS signal compared to control sample [17] | % change of MS signal compared to control sample [18] | % change of MS signal compared to control sample [19] | % change of MS signal compared to control sample [20] | % change of MS signal compared to control sample [21] | also measured
C=CC(=O)N1CCC(CNc2nccc(Nc3ncc(C(=O)Nc4c(C)cccc4C)s3)n2)C1 (racemic) [Example I-8] | 19.8% | 28.8% | 32.9% | 0.5% | −10.7% | 3.7% | 8.5% | >90% and >97% | 4.5% | 13.1% | 2.0% and 2.4% | −14.2% | 7.9% | 9.7% | 88.1% and 86.2% | 6.1% | 13.6% | −47.7% | −7.7% and −4.8% | −8.8% | % change of MS signal compared to control sample [11]: 1.9% and 9.1%; % change of MS signal compared to control sample [22]: −0.8%; % change of MS signal compared to control sample [23]: −36.8%; % change of MS signal compared to control sample [24]: 19.0%; % change of MS signal compared to control sample [25]: 7.5%; % change of MS signal compared to control sample [26]: 8.7%; % change of MS signal compared to control sample [27]: 69.9% and 82.4%; % change of MS signal compared to control sample [28]: 97.9%; % change of MS signal compared to control sample [29]: 1.0%; % change of MS signal compared to control sample [30]: −8.2%; % change of MS signal compared to control sample [31]: >97%; % change of MS signal compared to control sample [32]: −19.5%; % change of MS signal compared to control sample [33]: 1.7%; % change of MS signal compared to control sample [34]: 79.5% and 71.1%; % change of MS signal compared to control sample [35]: 27.5%; % change of MS signal compared to control sample [36]: −7.5%; % change of MS signal compared to control sample [37]: −24.9%; % change of MS signal compared to control sample [38]: 3.6%; % change of MS signal compared to control sample [39]: 98.0% and >90%
C=CC(=O)N1CCCCC(Nc2nccc(Nc3ncc(C(=O)Nc4c(C)cccc4C)s3)n2)C1 (stereo not drawn) [Example I-7] | 14.9% | 27.0% | 38.2% | 0.9% | −4.1% | −3.8% | 9.9% | >90% and >97% | 4.1% | 12.2% | −12.2% and −4.1% | −11.3% | 42.8% | 14.5% | 76.5% and 75.7% | 4.2% | 6.2% | −45.3% | −5.8% and −5.3% | −10.1% | % change of MS signal compared to control sample [22]: 11.6%; % change of MS signal compared to control sample [23]: −70.1%; % change of MS signal compared to control sample [24]: −1.5%; % change of MS signal compared to control sample [25]: −11.0%; % change of MS signal compared to control sample [26]: 10.0%; % change of MS signal compared to control sample [27]: 80.7% and 88.5%; % change of MS signal compared to control sample [28]: 98.4%; % change of MS signal compared to control sample [29]: −3.7%; % change of MS signal compared to control sample [30]: −13.5%; % change of MS signal compared to control sample [40]: 1.8% and 5.5%; % change of MS signal compared to control sample [31]: >97%; % change of MS signal compared to control sample [32]: 1.2%; % change of MS signal compared to control sample [33]: 10.4%; % change of MS signal compared to control sample [34]: 85.1% and 58.6%; % change of MS signal compared to control sample [35]: −6.4%; % change of MS signal compared to control sample [36]: 11.2%; % change of MS signal compared to control sample [37]: −48.0%; % change of MS signal compared to control sample [38]: −2.3%; % change of MS signal compared to control sample [39]: 98.9% and >90%
